Article PMC8596578, “Structural Basis for The Recognition of Deaminated Nucleobases by An Archaeal DNA Polymerase” (Chembiochem, 2021)

Target: T1, KOD DNA polymerase (exonuclease deficient mutant D141A, E143A) (Thermococcus kodakarensis, UniProt P77933, D141A/E143A)
T1 construct: gene pol; exonuclease-deficient polymerase, codon-optimized, pET24a (NdeI/NotI), E. coli BL21(DE3); intein-free mature protein
Assay: X-ray crystal structure of closed ternary complex
Format: binding
Details: primer/template DNA (21 nt template, with canonical bases in KOD-21nt or uracil at +6 in KOD-U); polymerase active site, Mg2+ and Mn2+; pH 7.5 (KOD-21nt) or 6.5 (KOD-U)

## Nc1ncnc2c1ncn2[C@H]1C[C@H](O)[C@@H](COP(=O)(O)OP(=O)(O)OP(=O)(O)O)O1 [dATP]
  X-ray crystal structure of closed ternary complex: closed ternary complex, with dATP and three metal ions
